A word on the IC50: it is the concentration at which inhibition is half-maximal. High values mean weaker potency, low ones greater potency.

Among the data in US11739098B2 (BRISTOL-MYERS SQUIBB COMPANY, priority 2017, dated 2023) are IC50 values, retold here.

Common to all, as to type: cell-based
Assay [1] concerns the target T1, human TLR9 (Homo sapiens, UniProt Q9NR96).
T1 construct: host or cells: HEK-Blue cells (HEK293-derived reporter line)
T1 sequence (Q9NR96 26-1032): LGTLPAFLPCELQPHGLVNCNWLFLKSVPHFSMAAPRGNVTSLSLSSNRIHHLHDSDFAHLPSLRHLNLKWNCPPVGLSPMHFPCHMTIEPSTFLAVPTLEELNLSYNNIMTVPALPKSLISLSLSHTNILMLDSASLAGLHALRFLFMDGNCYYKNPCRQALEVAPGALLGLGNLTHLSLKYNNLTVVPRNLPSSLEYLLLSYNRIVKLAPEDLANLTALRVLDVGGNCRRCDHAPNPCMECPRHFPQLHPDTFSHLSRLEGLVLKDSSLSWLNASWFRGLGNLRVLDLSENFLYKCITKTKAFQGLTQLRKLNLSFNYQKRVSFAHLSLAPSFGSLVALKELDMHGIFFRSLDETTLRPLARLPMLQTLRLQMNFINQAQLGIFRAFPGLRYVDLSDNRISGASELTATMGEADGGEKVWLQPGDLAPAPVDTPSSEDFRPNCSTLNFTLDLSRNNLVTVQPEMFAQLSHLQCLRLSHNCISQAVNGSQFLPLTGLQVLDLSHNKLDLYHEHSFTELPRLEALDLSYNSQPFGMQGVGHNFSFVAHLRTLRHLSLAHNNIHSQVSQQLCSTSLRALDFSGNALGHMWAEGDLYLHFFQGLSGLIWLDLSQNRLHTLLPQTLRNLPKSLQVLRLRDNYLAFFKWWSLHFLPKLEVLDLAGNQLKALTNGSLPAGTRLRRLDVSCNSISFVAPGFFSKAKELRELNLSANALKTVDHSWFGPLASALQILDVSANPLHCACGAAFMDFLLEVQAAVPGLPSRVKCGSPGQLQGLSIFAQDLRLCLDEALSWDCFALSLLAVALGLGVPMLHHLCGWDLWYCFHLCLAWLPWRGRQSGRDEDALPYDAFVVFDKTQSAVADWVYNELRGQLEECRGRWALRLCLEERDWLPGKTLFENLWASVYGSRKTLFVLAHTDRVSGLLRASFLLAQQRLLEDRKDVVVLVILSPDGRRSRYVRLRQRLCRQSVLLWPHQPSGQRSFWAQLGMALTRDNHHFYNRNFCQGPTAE
The experiment in a line: TLR9 inhibition reporter assay (HEK-Blue cells, SEAP reporter, ODN2006 stimulation). As to conditions: HEK-Blue cells overexpressing human TLR9, SEAP reporter, ODN2006 5 nM. An outline of the steps:
(§1)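 After 22 h at 37 °C, SEAP secretion was measured from human TLR7-, TLR8- or TLR9-expressing HEK-Blue reporter cells given compound (0.05 nM–50 μM) 30 min before agonist: 7.5 μM gardiquimod, 15.9 μM R848 or 5 nM ODN2006 respectively. Percent inhibition referenced to agonist-plus-DMSO and known-inhibitor wells.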
For orientation: Reporter assays use an easily measured gene product as a stand-in for the process of interest.

Assay [2] concerns the target T2, human TLR8 (Homo sapiens, UniProt Q9NR97).
T2 construct: host or cells: HEK-Blue cells (HEK293-derived reporter line)
T2 sequence (Q9NR97 27-1041): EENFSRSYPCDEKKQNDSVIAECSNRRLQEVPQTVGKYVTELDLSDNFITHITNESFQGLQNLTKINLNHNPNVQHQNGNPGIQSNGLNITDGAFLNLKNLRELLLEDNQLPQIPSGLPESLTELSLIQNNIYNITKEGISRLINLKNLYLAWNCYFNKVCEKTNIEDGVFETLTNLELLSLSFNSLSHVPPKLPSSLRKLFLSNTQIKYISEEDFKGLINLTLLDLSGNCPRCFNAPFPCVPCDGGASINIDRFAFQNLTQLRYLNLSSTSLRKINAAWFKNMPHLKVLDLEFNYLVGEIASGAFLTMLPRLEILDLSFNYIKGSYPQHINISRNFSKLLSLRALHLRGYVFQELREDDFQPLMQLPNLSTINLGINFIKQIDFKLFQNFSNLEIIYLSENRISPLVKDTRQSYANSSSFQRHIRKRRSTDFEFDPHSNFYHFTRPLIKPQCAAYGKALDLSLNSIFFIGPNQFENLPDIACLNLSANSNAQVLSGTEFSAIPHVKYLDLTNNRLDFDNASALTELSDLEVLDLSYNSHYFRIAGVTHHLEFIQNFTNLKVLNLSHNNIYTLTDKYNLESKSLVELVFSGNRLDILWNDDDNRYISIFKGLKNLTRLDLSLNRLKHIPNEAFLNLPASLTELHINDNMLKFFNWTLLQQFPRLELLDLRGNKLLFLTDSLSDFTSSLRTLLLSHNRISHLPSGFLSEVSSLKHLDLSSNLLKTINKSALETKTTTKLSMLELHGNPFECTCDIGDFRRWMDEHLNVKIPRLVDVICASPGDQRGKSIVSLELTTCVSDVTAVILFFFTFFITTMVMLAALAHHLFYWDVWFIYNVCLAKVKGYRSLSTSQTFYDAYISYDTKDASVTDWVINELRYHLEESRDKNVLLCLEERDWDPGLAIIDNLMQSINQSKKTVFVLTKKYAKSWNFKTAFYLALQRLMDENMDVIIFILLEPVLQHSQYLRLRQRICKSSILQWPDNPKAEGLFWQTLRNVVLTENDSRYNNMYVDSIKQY
The experiment in a line: TLR8 inhibition reporter assay (HEK-Blue cells, SEAP reporter, R848 stimulation). As to conditions: HEK-Blue cells overexpressing human TLR8, SEAP reporter, R848 15.9 μM. The procedure, abridged: as §1

Assay [3] addresses T3, human TLR7 (Homo sapiens, UniProt Q9NYK1).
T3 construct: host or cells: HEK-Blue cells (HEK293-derived reporter line)
T3 sequence (Q9NYK1 27-1049): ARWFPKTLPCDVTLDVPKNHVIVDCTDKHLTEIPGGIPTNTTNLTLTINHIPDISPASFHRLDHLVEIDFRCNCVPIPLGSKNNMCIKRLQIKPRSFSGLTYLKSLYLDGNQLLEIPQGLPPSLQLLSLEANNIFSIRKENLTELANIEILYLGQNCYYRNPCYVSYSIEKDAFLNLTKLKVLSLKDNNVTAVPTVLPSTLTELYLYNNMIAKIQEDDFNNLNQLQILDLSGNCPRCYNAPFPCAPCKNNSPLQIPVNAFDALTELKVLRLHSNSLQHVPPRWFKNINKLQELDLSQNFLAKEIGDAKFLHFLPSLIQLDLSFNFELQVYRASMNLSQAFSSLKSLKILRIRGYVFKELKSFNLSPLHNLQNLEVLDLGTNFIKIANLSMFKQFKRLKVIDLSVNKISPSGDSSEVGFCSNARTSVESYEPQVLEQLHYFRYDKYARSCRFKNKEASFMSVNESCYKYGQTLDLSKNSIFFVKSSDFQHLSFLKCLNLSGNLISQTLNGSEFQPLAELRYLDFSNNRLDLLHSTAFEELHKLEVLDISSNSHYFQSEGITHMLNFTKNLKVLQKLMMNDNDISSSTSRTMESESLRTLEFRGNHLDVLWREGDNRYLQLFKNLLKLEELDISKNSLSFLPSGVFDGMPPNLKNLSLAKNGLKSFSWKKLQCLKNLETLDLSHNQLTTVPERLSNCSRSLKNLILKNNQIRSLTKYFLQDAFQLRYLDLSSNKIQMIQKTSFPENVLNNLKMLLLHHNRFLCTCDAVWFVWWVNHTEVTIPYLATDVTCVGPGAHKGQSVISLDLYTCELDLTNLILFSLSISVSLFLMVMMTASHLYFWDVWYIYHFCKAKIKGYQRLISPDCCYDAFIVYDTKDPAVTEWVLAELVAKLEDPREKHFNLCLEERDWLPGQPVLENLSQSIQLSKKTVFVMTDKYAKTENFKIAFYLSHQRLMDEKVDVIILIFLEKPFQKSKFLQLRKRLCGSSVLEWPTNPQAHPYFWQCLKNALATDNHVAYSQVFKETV
The experiment in a line: TLR7 inhibition reporter assay (HEK-Blue cells, SEAP reporter, gardiquimod stimulation). As to conditions: HEK-Blue cells overexpressing human TLR7, SEAP reporter, gardiquimod 7.5 μM. The procedure, abridged:
as §1

`Cc1cc(-c2[nH]c3ccc(C4CCN(C(=O)CCN(C)C(C)C)CC4)cc3c2C(C)C)cn2nnnc12` [Example 624, 3-(isopropyl(methyl)amino)-1-(4-(3-isopropyl-2-(8-methyltetrazolo[1,5-a]pyridin-6-yl)-1H-indol-5-yl)piperidin-1-yl)propan-1-one]: the half-inhibitory concentration (IC50) is 100 to 1000 nM in assay [1], under 100 nM in assay [2] and under 100 nM in assay [3].
Consider `CNC(=O)CN1CCC(c2ccc3[nH]c(-c4cc(C)c5nn(C)cc5c4)c(C(C)C)c3c2)CC1` [Example 378, 2-(4-(2-(2,7-dimethyl-2H-indazol-5-yl)-3-isopropyl-1H-indol-5-yl)piperidin-1-yl)-N-methylacetamide], for which the IC50 in assay [1] is 1000 to 50000 nM; in assay [2] it was 100 to 1000 nM; in assay [3] it was under 100 nM.
As for `CCc1c(-c2cnc3cnccn23)[nH]c2ccc(C3CCNCC3)cc12` [Example 28, 3-(3-ethyl-5-(piperidin-4-yl)-1H-indol-2-yl)imidazo[1,2-a]pyrazine], the IC50 lay within 100 to 1000 nM in assay [1], 1000 to 50000 nM in assay [2] and 1000 to 50000 nM in assay [3].
`CNCC(=O)N1CCC(c2ccc3[nH]c(-c4cc(OC)n5ncnc5c4)c(C(C)C)c3c2)CC1` [Example 553, 1-(4-(3-isopropyl-2-(5-methoxy-[1,2,4]triazolo[1,5-a]pyridin-7-yl)-1H-indol-5-yl)piperidin-1-yl)-2-(methylamino)ethan-1-one]: the IC50 was 100 to 1000 nM in assay [1], under 100 nM in assay [2] and under 100 nM in assay [3].
Regarding `CNC(=O)CN1CCC(c2ccc3[nH]c(-c4cc(OC)n5ccnc5c4)c(C(C)C)c3c2)CC1` [Example 356, 2-(4-(3-isopropyl-2-(5-methoxyimidazo[1,2-a]pyridin-7-yl)-1H-indol-5-yl)piperidin-1-yl)-N-methylacetamide], the IC50 in assay [1], in assay [2] and in assay [3] was 100 to 1000 nM in each case.
Take `Cc1cc(-c2[nH]c3ccc(C4CCN(C(=O)CN(C)C5CC5)CC4)cc3c2C(C)C)cn2nnnc12` [Example 483, 2-(cyclopropyl(methyl)amino)-1-(4-(3-isopropyl-2-(8-methyltetrazolo[1,5-a]pyridin-6-yl)-1H-indol-5-yl)piperidin-1-yl)ethan-1-one]: the IC50 is 1000 to 50000 nM in assay [1], under 100 nM in assay [2] and under 100 nM in assay [3].
For the compound `Cc1cc(-c2[nH]c3ccc(C4CCNCC4)cc3c2C(C)C)cn2c(C)cnc12` [Example 121, 6-(3-isopropyl-5-(piperidin-4-yl)-1H-indol-2-yl)-3,8-dimethylimidazo[1,2-a]pyridine], the IC50 was 1000 to 50000 nM in assay [1], 1000 to 50000 nM in assay [2] and under 100 nM in assay [3].
`CC(C)c1c(-c2ccc3c(c2)oc(=O)n3C)[nH]c2ccc(C3CCNCC3)cc12` [Example 89, 6-(3-isopropyl-5-(piperidin-4-yl)-1H-indol-2-yl)-3-methylbenzo[d]oxazol-2(3H)-one]: the 50% inhibitory concentration (IC50) in assay [1] is 100 to 1000 nM; in assay [2] it was under 100 nM; in assay [3], 100 to 1000 nM.
As to `CC(C)c1c(-c2ccnc3[nH]ncc23)[nH]c2ccc(C3CCN(Cc4ccc(N5CCCC5)cc4)CC3)cc12` [Example 905, 4-(3-isopropyl-5-(1-(4-(pyrrolidin-1-yl)benzyl)piperidin-4-yl)-1H-indol-2-yl)-1H-5 pyrazolo[3,4-b]pyridine], the concentration for half-maximal inhibition (IC50) in assay [1] was 1000 to 50000 nM; in assay [2], under 100 nM; in assay [3], 100 to 1000 nM.
The like results for `CNC(=O)c1cn2cc(-c3[nH]c4ccc(C5CCNCC5)cc4c3C(C)C)cc(C)c2n1` [Example 264, 6-(3-isopropyl-5-(piperidin-4-yl)-1H-indol-2-yl)-N,8-dimethylimidazo[1,2-a]pyridine-2-carboxamide] were, in that order, 100 to 1000 nM, under 100 nM and under 100 nM.
Take `Cc1cc(-c2[nH]c3ccc(C4CCN(C(=O)CCN5CCS(=O)(=O)CC5)CC4)cc3c2C(C)C)cn2nnnc12` [Example 634, 3-(1,1-dioxidothiomorpholino)-1-(4-(3-isopropyl-2-(8-methyltetrazolo[1,5-a]pyridin-6-yl)-1H-indol-5-yl)piperidin-1-yl)propan-1-one]: the figures for the IC50 in assay [1], in assay [2] and in assay [3] were over 50000 nM, 100 to 1000 nM and under 100 nM, respectively.
Take `CNCCN1CCC(c2ccc3[nH]c(-c4cccc5cccnc45)c(C)c3c2)CC1` [Example 662, N-methyl-2-(4-(3-methyl-2-(quinolin-8-yl)-1H-indol-5-yl)piperidin-1-yl)ethan-1-amine]: the IC50 in assay [1] was 1000 to 50000 nM; in assay [2], over 3130 nM; in assay [3], 1000 to 50000 nM.
Take `Cc1cc(-c2[nH]c3ccc(C4CCN(C(=O)CN(C)C)CC4)cc3c2C(C)C)cc2[nH]c(=O)oc12` [Example 490, 5-(5-(1-(dimethylglycyl)piperidin-4-yl)-3-isopropyl-1H-indol-2-yl)-7-methylbenzo[d]oxazol-2(3H)-one]: the IC50 in assay [1] fell in the range of 1000 to 50000 nM; in assay [2] it was 100 to 1000 nM; in assay [3] it was 100 to 1000 nM.
